Experimental data as given in patent US20230138395A1, “PHARMACEUTICAL COMPOSITIONS OF A THERAPEUTIC POLYENE MACROLIDE AND METHODS OF THEIR USE” (priority 2020, published 2023).
≈ marks a conversion by molar mass, not a printed value. Where “and” joins values, the source holds several entries; their conditions need not be identical. Equal values may be shown once.

Legend:
[1] = test system: Candida albicans; experiment: MIC testing (CLSI M27-A3); assay type: cell-based; set-up: MIC: unit not given beside the values; conditions: for MIC Range: in µg/mL
[2] = test system: C. glabrata strains; experiment: MIC testing (CLSI M27-A3); assay type: cell-based; set-up: MIC: unit not given beside the values
[3] = test system: C. glabrata strains; experiment: MFC determination; assay type: cell-based; set-up: MFC: unit not given beside the values
[4] = test system: C. krusei strains; experiment: MFC determination; assay type: cell-based
[5] = test system: C. parapsilosis; experiment: MIC testing (CLSI M27-A3); assay type: cell-based; set-up: MIC: unit not given beside the values
[6] = test system: C. tropicalis; experiment: MIC testing (CLSI M27-A3); assay type: cell-based
[7] = test system: all Candida strains; experiment: MFC determination, summary; assay type: cell-based
[8] = test system: Cr. neoformans strains; experiment: MIC testing (CLSI M27-A3, YNB, 72 h); assay type: cell-based, Cryptococcus neoformans
[9] = test system: Cr. neoformans strains; experiment: MFC determination; assay type: cell-based, Cryptococcus neoformans; conditions: Cr. neoformans
[10] = test system: individual Aspergillus spp. (Table 12, species not named); experiment: MIC testing (CLSI M38-A2), Table 12; assay type: cell-based; conditions: Aspergillus sp. of Table 12, caspofungin read as MEC
[11] = test system: individual Aspergillus spp. (Table 14, species not named); experiment: MIC testing (CLSI M38-A2), Table 14; assay type: cell-based; conditions: Aspergillus sp. of Table 14, caspofungin read as MEC
[12] = test system: individual Aspergillus spp. (Table 14, species not named); experiment: MFC determination, Table 14; assay type: cell-based; conditions: Aspergillus sp. of Table 14
[13] = test system: individual Aspergillus spp. (Table 15, species not named); experiment: MFC determination, Table 15; assay type: cell-based; conditions: Aspergillus sp. of Table 15
[14] = test system: all Aspergillus strains tested; experiment: MIC testing (CLSI M38-A2), summary; assay type: cell-based; conditions: caspofungin read as MEC
[15] = test system: all Aspergillus strains tested; experiment: MFC determination, summary; assay type: cell-based
[16] = test system: Fusarium strains; experiment: MIC testing (CLSI M38-A2), Table 17; assay type: cell-based, Fusarium spp.; conditions: Fusarium strains (Table 17)
[17] = test system: Fusarium strains; experiment: MFC determination, Table 17; assay type: cell-based, Fusarium spp.; conditions: Fusarium strains (Table 17)
[18] = test system: Fusarium strains (Table 18); experiment: MFC determination, Table 18; assay type: cell-based, Fusarium spp.
[19] = test system: Penicillium strains; experiment: MIC testing (CLSI M38-A2); assay type: cell-based, Penicillium spp.; conditions: Penicillium
[20] = test system: Penicillium strains; experiment: MFC determination; assay type: cell-based, Penicillium spp.
[21] = test system: A. fumigatus AF91; experiment: In vitro activity (MFC) against the infecting strain, Example 17; assay type: cell-based, Aspergillus fumigatus; conditions: Aspergillus fumigatus, read-out: MFC
Procedure: Minimum Fungicidal Concentration: MFC determinations were performed according to the modifications previously described by Canton et al., Diagn. Microbiol. Infect. Dis., 45:203-206, 2003, and Ghannoum and Isham, Infectious Diseases in Clinical Practice, 15(4):250-253, 2007.
Specifically, the total contents of each clear well from the MIC assay were subcultured onto potato dextrose agar. To avoid antifungal carryover, the aliquots were allowed to soak into the agar and then were streaked for isolation once dry, thus removing the cells from the drug source. Fungicidal activity is defined as ≥99.9% reduction in the number of colony forming units (CFU)/ml from the starting inoculum count, while fungistatic activity is defined as <99.9% reduction. […] MIC and MFC values are considered to be equivalent if they are within 2 dilutions.

[22] = test system: C. albicans SC5314; experiment: In vitro activity (MIC) against the infecting strain, Example 18; assay type: cell-based, Candida albicans; conditions: Candida albicans, minimum effective concentration, read-out: MIC read as MEC
[23] = test system: C. albicans SC5314; experiment: In vitro activity (MFC) against the infecting strain, Example 18; assay type: cell-based, Candida albicans; conditions: Candida albicans, read-out: MFC
[24] = test system: Candida albicans SC5314; experiment: Disseminated candidiasis in immunocompromised murine model (BALB/c mice): tissue fungal burden; assay type: in vivo; conditions: Experiment I; 0.35 mg/kg i.v., 7 days
[25] = test system: Aspergillus fumigatus AF91; experiment: Disseminated Aspergillosis in immunocompromised murine model (CD-1 mice): tissue fungal burden; conditions: Experiment I; 1.0 mg/kg i.v., 7 days
[26] = individual C. glabrata strain with elevated MICs to non-polyene comparators (Table 22), listed as Cas

CC[C@H](C)C[C@H](C)CCCCCCCCC(=O)N[C@H]1C[C@@H](O)[C@@H](NCCN)NC(=O)[C@@H]2[C@@H](O)CCN2C(=O)[C@H]([C@H](O)CCN)NC(=O)[C@H]([C@H](O)[C@@H](O)c2ccc(O)cc2)NC(=O)[C@@H]2C[C@@H](O)CN2C(=O)[C@H]([C@@H](C)O)NC1=O [Caspofungin, caspofungin]
MIC Range ([1]; Fluconazole-resistant C. albicans n = 7): 0.125-2 | MIC Range ([1]; Fluconazole-susceptible C. albicans n = 13): 0.125-0.25 | MIC50 ([1]; Fluconazole-susceptible C. albicans n = 13, inhibits 50% of strains): 0.25 µg/mL (≈ 0.229 µM) | MIC90 ([1]; Fluconazole-susceptible C. albicans n = 13, inhibits 90% of strains): 0.25 µg/mL (≈ 0.229 µM) | MIC ([1]; individual C. albicans strain with elevated MICs to non-polyene comparators (Table 22), listed as Cas): 1 (2×) and 2 | MIC Range ([2]; C. glabrata strains, in µg/mL): 0.25-8 | MIC50 ([2]; C. glabrata, inhibits 50% of strains): 0.5 µg/mL (≈ 0.457 µM) | MIC90 ([2]; C. glabrata, inhibits 90% of strains): 2 µg/mL (≈ 1.83 µM) | MIC [2, 26]: 2 (2×) and 1 and 4 and 8 | MFC50 ([3]; C. glabrata, kills 50% of strains): 1 µg/mL (≈ 0.915 µM) | MFC90 ([3]; C. glabrata, kills 90% of strains): 32 µg/mL (≈ 29.3 µM) | MFC [3, 26]: 32 (3×) and 16 and >32 | MFC50 ([4]; C. krusei, kills 50% of strains): 2 µg/mL (≈ 1.83 µM) | MFC90 ([4]; C. krusei, kills 90% of strains): 8 µg/mL (≈ 7.32 µM) | MFC ([4]; individual C. krusei strain with elevated MICs to non-polyene comparators (Table 22)): > 32 µg/mL | MIC Range ([5]; C. parapsilosis strains, in µg/mL): 0.25-2 | MIC50 ([5]; C. parapsilosis, inhibits 50% of strains): 0.5 µg/mL (≈ 0.457 µM) | MIC90 ([5]; C. parapsilosis, inhibits 90% of strains): 2 µg/mL (≈ 1.83 µM) | MIC ([5]; individual C. parapsilosis strain with elevated MICs to non-polyene comparators (Table 22), in µg/mL): 2 | MIC Range ([6]; C. tropicalis strains, in µg/mL): 0.06-2 | MIC50 ([6]; C. tropicalis, inhibits 50% of strains): 0.25 µg/mL (≈ 0.229 µM) | MIC90 ([6]; C. tropicalis, inhibits 90% of strains): 0.5 µg/mL (≈ 0.457 µM) | MFC50 ([7]; kills 50% of strains): 16 µg/mL (≈ 14.6 µM) | MFC90 ([7]; kills 90% of strains): > 32 µg/mL | MIC Range ([8]; Cr. neoformans strains, 72 h, in µg/mL): 1-16 | MIC50 ([8]; Cr. neoformans, inhibits 50% of strains): 16 µg/mL (≈ 14.6 µM) | MIC90 ([8]; Cr. neoformans, inhibits 90% of strains): 16 µg/mL (≈ 14.6 µM) | MFC50 ([9]; kills 50% of strains): > 32 µg/mL | MFC90 ([9]; kills 90% of strains): > 32 µg/mL | MIC Range ([10]; in µg/mL): 0.125-8 | MIC50 ([10]; inhibits 50% of strains): 0.25 µg/mL (≈ 0.229 µM) | MIC90 ([10]; inhibits 90% of strains): 0.5 µg/mL (≈ 0.457 µM) | MIC Range ([11]; in µg/mL): 0.125-2 | MIC50 ([11]; inhibits 50% of strains): 0.125 µg/mL (≈ 0.114 µM) | MIC90 ([11]; inhibits 90% of strains): 0.25 µg/mL (≈ 0.229 µM) | MFC50 ([12]; kills 50% of strains): > 32 µg/mL | MFC90 ([12]; kills 90% of strains): > 32 µg/mL | MFC50 ([13]; kills 50% of strains): > 32 µg/mL | MFC90 ([13]; kills 90% of strains): > 32 µg/mL | MIC Range ([14]; in µg/mL): 0.125-8 | MIC50 ([14]; inhibits 50% of strains): 0.25 µg/mL (≈ 0.229 µM) | MIC90 ([14]; inhibits 90% of strains): 0.5 µg/mL (≈ 0.457 µM) | MFC50 ([15]; kills 50% of strains): > 32 µg/mL | MFC90 ([15]; kills 90% of strains): > 32 µg/mL | MIC Range ([16]; in µg/mL): 1-64 | MIC50 ([16]; inhibits 50% of strains): 32 µg/mL (≈ 29.3 µM) | MIC90 ([16]; inhibits 90% of strains): 32 µg/mL (≈ 29.3 µM) | MFC Range ([17]; in µg/mL): >32 | MFC50 ([17]; kills 50% of strains): > 32 µg/mL | MFC90 ([17]; kills 90% of strains): > 32 µg/mL | MFC Range [18]: > 32 µg/mL | MFC50 ([18]; kills 50% of strains): > 32 µg/mL | MFC90 ([18]; kills 90% of strains): > 32 µg/mL | MIC50 ([19]; inhibits 50% of strains): 4 µg/mL (≈ 3.66 µM) | MIC90 ([19]; inhibits 90% of strains): 32 µg/mL (≈ 29.3 µM) | MFC50 ([20]; kills 50% of strains): > 32 µg/mL | MFC90 ([20]; kills 90% of strains): > 32 µg/mL | MFC [21]: > 16 µg/mL | MIC [22]: 0.25 µg/mL (≈ 0.229 µM) | MFC [23]: 32 µg/mL (≈ 29.3 µM) | Brain tissue fungal burden, Mean log CFUs ± the standard deviation [24]: 1.22 ± 1.87 log CFUs | Kidney tissue fungal burden, Mean log CFUs ± the standard deviation [24]: 3.22 ± 1.26 log CFUs | Kidney tissue fungal burden, Mean log CFUs ± the standard deviation [25]: 3.11 ± 0.62 log CFUs | Lung tissue fungal burden, Mean log CFUs ± the standard deviation [25]: 3.41 ± 0.64 log CFUs
